In the supplement of paper PMC10307832:

Columns and labels:
Experiment in all cases: relative viability (nuclei count vs DMSO), 5 days (fraction); higher = more cells survive
Metformin + Tozasertib = compound: CN(C)C(=N)NC(=N)N [Metformin] + Cc1cc(Nc2cc(N3CCN(C)CC3)nc(Sc3ccc(NC(=O)C4CC4)cc3)n2)n[nH]1 [Tozasertib] (partner 0.1 µM)
How it was run: (§1)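 Relative viability divides the nuclei count in treated wells by that in vehicle wells. Lung cancer cell lines were seeded in 1536-well plates, dosed by pin tool the next day, and fixed and stained after 5 days in one step with final 0.05% Triton X-100, 1% formaldehyde and 1 ug/ml Hoechst. Dosing was a single drug or a fixed anchor-drug dose plus five library-drug doses (not always all listed) in √10 steps, and values are medians of duplicate plates imaged at 4×.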

Apatinib + Navitoclax = compound: N#CC1(c2ccc(NC(=O)c3cccnc3NCc3ccncc3)cc2)CCCC1 [Apatinib] + CC1(C)CCC(c2ccc(Cl)cc2)=C(CN2CCN(c3ccc(C(=O)NS(=O)(=O)c4ccc(N[C@H](CCN5CCOCC5)CSc5ccccc5)c(S(=O)(=O)C(F)(F)F)c4)cc3)CC2)C1 [Navitoclax] (partner 0.5 µM)
How it was run: as §1

Apatinib + Crizotinib = compound: N#CC1(c2ccc(NC(=O)c3cccnc3NCc3ccncc3)cc2)CCCC1 [Apatinib] + C[C@@H](Oc1cc(-c2cnn(C3CCNCC3)c2)cnc1N)c1c(Cl)ccc(F)c1Cl [Crizotinib] (partner 1 µM)
How it was run: as §1

Apatinib + Pemetrexed = compound: N#CC1(c2ccc(NC(=O)c3cccnc3NCc3ccncc3)cc2)CCCC1 [Apatinib] + Nc1nc2[nH]cc(CCc3ccc(C(=O)N[C@@H](CCC(=O)O)C(=O)O)cc3)c2c(=O)[nH]1 [Pemetrexed] (partner 0.2 µM)
How it was run: as §1

Cell Line: NCI-H1975
- relative viability (Metformin + Tozasertib; first compound 10 µM): 0.888
- relative viability (Metformin + Tozasertib; first compound 31.62 µM): 0.905
- relative viability (Metformin + Tozasertib; first compound 100 µM): 0.872
- relative viability (Metformin + Tozasertib; first compound 316.23 µM): 0.78
- relative viability (Metformin + Tozasertib; first compound 1000 µM): 1.08
- relative viability (Apatinib + Navitoclax; first compound 0.08 µM): 1.19
- relative viability (Apatinib + Navitoclax; first compound 0.253 µM): 1.15
- relative viability (Apatinib + Navitoclax; first compound 0.8 µM): 1.04
- relative viability (Apatinib + Navitoclax; first compound 2.53 µM): 0.869
- relative viability (Apatinib + Navitoclax; first compound 8 µM): 0.852
- relative viability (Apatinib + Crizotinib; first compound 0.08 µM): 1
- relative viability (Apatinib + Crizotinib; first compound 0.253 µM): 0.967
- relative viability (Apatinib + Crizotinib; first compound 0.8 µM): 0.78
- relative viability (Apatinib + Crizotinib; first compound 2.53 µM): 0.814
- relative viability (Apatinib + Crizotinib; first compound 8 µM): 0.78
- relative viability (Apatinib + Pemetrexed; first compound 0.08 µM): 0.296
- relative viability (Apatinib + Pemetrexed; first compound 0.253 µM): 0.299
- relative viability (Apatinib + Pemetrexed; first compound 0.8 µM): 0.271
- relative viability (Apatinib + Pemetrexed; first compound 2.53 µM): 0.282
- relative viability (Apatinib + Pemetrexed; first compound 8 µM): 0.203

Cell Line: LU99A
- relative viability (Metformin + Tozasertib; first compound 10 µM): 0.234
- relative viability (Metformin + Tozasertib; first compound 31.62 µM): 0.246
- relative viability (Metformin + Tozasertib; first compound 100 µM): 0.253
- relative viability (Metformin + Tozasertib; first compound 316.23 µM): 0.235
- relative viability (Metformin + Tozasertib; first compound 1000 µM): 0.236
- relative viability (Apatinib + Navitoclax; first compound 0.08 µM): 0.876
- relative viability (Apatinib + Navitoclax; first compound 0.253 µM): 0.851
- relative viability (Apatinib + Navitoclax; first compound 0.8 µM): 0.745
- relative viability (Apatinib + Navitoclax; first compound 2.53 µM): 0.721
- relative viability (Apatinib + Navitoclax; first compound 8 µM): 0.732
- relative viability (Apatinib + Crizotinib; first compound 0.08 µM): 0.585
- relative viability (Apatinib + Crizotinib; first compound 0.253 µM): 0.55
- relative viability (Apatinib + Crizotinib; first compound 0.8 µM): 0.526
- relative viability (Apatinib + Crizotinib; first compound 2.53 µM): 0.444
- relative viability (Apatinib + Crizotinib; first compound 8 µM): 0.458
- relative viability (Apatinib + Pemetrexed; first compound 0.08 µM): 0.189
- relative viability (Apatinib + Pemetrexed; first compound 0.253 µM): 0.198
- relative viability (Apatinib + Pemetrexed; first compound 0.8 µM): 0.183
- relative viability (Apatinib + Pemetrexed; first compound 2.53 µM): 0.174
- relative viability (Apatinib + Pemetrexed; first compound 8 µM): 0.212

Cell Line: HCC-827
- relative viability (Metformin + Tozasertib; first compound 31.62 µM): 0.422
- relative viability (Metformin + Tozasertib; first compound 100 µM): 0.442
- relative viability (Metformin + Tozasertib; first compound 316.23 µM): 0.387
- relative viability (Metformin + Tozasertib; first compound 1000 µM): 0.439
- relative viability (Apatinib + Navitoclax; first compound 0.08 µM): 1.07
- relative viability (Apatinib + Navitoclax; first compound 0.253 µM): 1.06
- relative viability (Apatinib + Navitoclax; first compound 0.8 µM): 0.956
- relative viability (Apatinib + Navitoclax; first compound 2.53 µM): 0.998
- relative viability (Apatinib + Navitoclax; first compound 8 µM): 0.781
- relative viability (Apatinib + Crizotinib; first compound 0.08 µM): 0.969
- relative viability (Apatinib + Crizotinib; first compound 0.253 µM): 0.887
- relative viability (Apatinib + Crizotinib; first compound 0.8 µM): 0.767
- relative viability (Apatinib + Crizotinib; first compound 2.53 µM): 0.83
- relative viability (Apatinib + Crizotinib; first compound 8 µM): 0.575
- relative viability (Apatinib + Pemetrexed; first compound 0.08 µM): 0.254
- relative viability (Apatinib + Pemetrexed; first compound 0.253 µM): 0.25
- relative viability (Apatinib + Pemetrexed; first compound 0.8 µM): 0.247
- relative viability (Apatinib + Pemetrexed; first compound 2.53 µM): 0.231
- relative viability (Apatinib + Pemetrexed; first compound 8 µM): 0.258

Cell Line: BEN
- relative viability (Metformin + Tozasertib; first compound 10 µM): 0.476
- relative viability (Metformin + Tozasertib; first compound 31.62 µM): 0.494
- relative viability (Metformin + Tozasertib; first compound 100 µM): 0.439
- relative viability (Metformin + Tozasertib; first compound 316.23 µM): 0.516
- relative viability (Metformin + Tozasertib; first compound 1000 µM): 0.395
- relative viability (Apatinib + Navitoclax; first compound 0.08 µM): 0.0553
- relative viability (Apatinib + Navitoclax; first compound 0.253 µM): 0.0606
- relative viability (Apatinib + Navitoclax; first compound 0.8 µM): 0.0462
- relative viability (Apatinib + Navitoclax; first compound 2.53 µM): 0.0661
- relative viability (Apatinib + Navitoclax; first compound 8 µM): 0.0637
- relative viability (Apatinib + Crizotinib; first compound 0.08 µM): 0.957
- relative viability (Apatinib + Crizotinib; first compound 0.253 µM): 1
- relative viability (Apatinib + Crizotinib; first compound 0.8 µM): 0.94
- relative viability (Apatinib + Crizotinib; first compound 2.53 µM): 0.671
- relative viability (Apatinib + Crizotinib; first compound 8 µM): 0.65
- relative viability (Apatinib + Pemetrexed; first compound 0.08 µM): 0.64
- relative viability (Apatinib + Pemetrexed; first compound 0.253 µM): 0.563
- relative viability (Apatinib + Pemetrexed; first compound 0.8 µM): 0.71
- relative viability (Apatinib + Pemetrexed; first compound 2.53 µM): 0.696
- relative viability (Apatinib + Pemetrexed; first compound 8 µM): 0.534
